Measured values published in article PMC6796659, “Topoisomerase IB poisons induce histone H2A phosphorylation as a response to DNA damage in Leishmania infantum” (International Journal for Parasitology: Drugs and Drug …, 2019).
Read-outs that look alike come from different tables or passages of the source.

How the values were obtained:
[1] = system: iRFP L. infantum amastigotes infecting mouse splenocytes; assay: Antileishmanial activity on iRFP L. infantum amastigotes in ex vivo murine splenic explants; type: cell-based, Leishmania infantum; conditions: for EC50: Leishmania infantum, Splenocyte, 72 h, read-out: EC50 (μM) L. infantum amastigotes; for SI (Selectivity Index): CC50 (splenocytes)/EC50 (amastigotes)
Method: Five-week BALB/c female mice infected intraperitoneally with 1.5 × 10^9 metacyclic iRFP L. infantum promastigotes were sacrificed to eviscerate their spleens, which were processed to obtain a suspension of primary splenocytes. Briefly, freshly dissected spleens were washed with cold phosphate-buffered saline (PBS), cut in small pieces and incubated for 20 min with 5 mL of 2 mg/mL collagenase D (Sigma) prepared in buffer (10 mM HEPES, pH 7.4, 150 mM NaCl, 5 mM KCl, 1 mM MgCl2 and 1.8 mM CaCl2). Then, the cell suspension was passed through a 100 μm cell strainer, harvested by centrifugation (500×g for 7 min at 4 °C), washed twice with PBS, and resuspended in RPMI medium (Gibco) supplemented with 10 mM HEPES, 1 mM sodium pyruvate, 1xRPMI 1640 vitamin mix, 10% (v/v) FBS, 50 U/mL penicillin and 50 μg/mL streptomycin. The cell suspension was cultured in 384-well optical bottom black plates (Thermo Scientific) at 37 °C under 5% CO2 atmosphere.
(§1) The antileishmanial activity of the compounds was tested both in promastigotes and in amastigotes infecting mouse splenocytes. For this purpose, 384-well optical bottom black plates (Thermo Scientific) were seeded either with free-living iRFP L. infantum promastigotes or with splenic explants infected with iRFP L. infantum amastigotes, which were incubated at 26 °C or 37 °C, respectively. The viability of both iRFP L. infantum stages was measured by recording the fluorescence emitted by viable cells at 708 nm in an Odyssey (Li-Cor) infrared imaging system after a 72-h period of incubation with different concentrations of the compounds. Dose-response curves were obtained by plotting the infrared fluorescence emission of viable parasites vs. different concentrations of testing compounds and were fitted by nonlinear analysis using the Sigma-Plot 10.0 statistical package. The reduction of infrared emission with respect to the negative control was used to determine the 50% effective concentration to kill the parasites (EC50). Both controls and treated groups were tested with DMSO (drug vehicle) concentrations below 0.1%. All compounds and controls were assayed in triplicate.

human Top IB (hTopIB) = target: T1, human Top IB (hTopIB) (Homo sapiens, UniProt P11387); assay: Relaxation of supercoiled pSK DNA by recombinant hTopIB; type: biochemical
T1 construct: made in house
T1 sequence (P11387 1-765): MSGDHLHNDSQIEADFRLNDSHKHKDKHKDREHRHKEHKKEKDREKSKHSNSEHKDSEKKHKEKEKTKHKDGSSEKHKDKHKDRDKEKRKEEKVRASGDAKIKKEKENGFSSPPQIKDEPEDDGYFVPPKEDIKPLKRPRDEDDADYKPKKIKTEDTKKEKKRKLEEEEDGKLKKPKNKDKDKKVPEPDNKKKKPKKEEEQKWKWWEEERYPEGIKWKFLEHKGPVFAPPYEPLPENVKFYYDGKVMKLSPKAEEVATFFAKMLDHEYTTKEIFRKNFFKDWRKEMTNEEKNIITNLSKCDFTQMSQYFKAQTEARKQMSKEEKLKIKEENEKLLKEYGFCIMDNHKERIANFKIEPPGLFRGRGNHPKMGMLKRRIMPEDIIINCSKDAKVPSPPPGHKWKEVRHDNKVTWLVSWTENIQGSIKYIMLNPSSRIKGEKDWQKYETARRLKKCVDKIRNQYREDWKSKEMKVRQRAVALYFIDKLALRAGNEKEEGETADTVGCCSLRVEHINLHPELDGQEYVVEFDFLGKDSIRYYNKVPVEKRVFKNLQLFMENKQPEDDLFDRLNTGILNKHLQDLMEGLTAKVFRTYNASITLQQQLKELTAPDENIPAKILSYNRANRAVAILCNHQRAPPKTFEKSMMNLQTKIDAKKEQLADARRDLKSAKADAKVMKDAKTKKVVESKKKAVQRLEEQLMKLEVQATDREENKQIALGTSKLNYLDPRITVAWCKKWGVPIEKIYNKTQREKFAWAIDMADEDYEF
Method: (§2) Expression and purification of LTopIB and hTopIB were carried out according to a previously standardized protocol ([Villa et al., 2003]). The effect of indenoisoquinolines (compounds 1 to 20) on recombinant LTopIB and hTopIB was determined by measuring the relaxation of negatively supercoiled pBluescript-SK DNA plasmid (pSK). Briefly, in a total volume of 20 μL, 100 U of recombinant TopIB were incubated with 0.5 μg of pSK DNA in 10 mM Tris-HCl buffer (pH 7.5), 5 mM MgCl2, 5 mM dithiothreitol (DTT), 0.1 mM EDTA, […] bovine serum albumin, and 150 mM KCl. Different concentrations of indenoisoquinolines were also added. Following a 4-min incubation period at 25 °C, reactions were stopped with 1% (w/v) SDS, and incubated for one extra hour at 37 °C in the presence of 1 mg/mL proteinase K. Subsequently, samples were extracted with 1 vol phenol-chloroform mixture and were loaded on a 1% agarose gel containing 0.1 μg/mL ethidium bromide. The gel was run for 16 h at 4 V/cm, and the images were acquired using a G-Box system (Syngene, United Kingdom).

[2] = system: iRFP L. infantum promastigotes; assay: Antileishmanial activity on free-living iRFP L. infantum promastigotes (infrared fluorescence viability); type: cell-based; conditions: Leishmania infantum, 72 h, 26 °C
Method: Histone phosphorylation assays were performed in promastigotes of L. infantum BCN 150 strain, whereas the antiparasitic activity of the compounds was assessed on the transgenic strain that constitutively expresses the irfp gene encoding the infrared iRFP protein (iRFP L. infantum strain) ([Calvo-Álvarez et al., 2015]), which is derived from L. infantum BCN 150. Both strains were grown at 26 °C in M-199 medium (Gibco) supplemented with 25 mM HEPES pH 7.2, 0.1 mM adenine, 0.0005% (w/v) hemin, 2 μg/mL biopterin, 0.0001% (w/v) biotin, 10% (v/v) heat-inactivated fetal bovine serum (FBS) and an antibiotic cocktail comprising 50 U/mL penicillin and 50 μg/mL streptomycin.
as §1

[3] = Cytotoxicity on uninfected mouse splenocytes (Alamar Blue); type: cell-based; conditions: BALB/c, freshly isolated uninfected mouse splenocytes, non-infected mouse splenocytes, read-out: CC50 (μM) Murine Splenocytes
Method: Finally, the cytotoxicity of the compounds was assessed on freshly-isolated mouse splenocytes, which were obtained from uninfected BALB/c mice according to the protocol previously described. Viability of uninfected splenocytes was used to determine the cytotoxic concentration 50 (CC50) by means of the Alamar Blue staining method, according to manufacturer's recommendations (Invitrogen). Selectivity index (SI) for each compound was calculated as the ratio between the CC50 value obtained for splenic cells and the EC50 value for amastigotes.

[4] = system: Leishmania topoisomerase IB (LTopIB); assay: Relaxation of supercoiled pSK DNA by recombinant LTopIB; type: biochemical; design: key: +++: inhibition at 1 μM; ++: inhibition at 10 μM; +: inhibition at 100 μM; 0: no inhibition
Method: as §2

[5] = system: L. infantum promastigotes; assay: Cell cycle analysis by flow cytometry (propidium iodide); type: cell-based, Leishmania infantum; conditions: 1 μM single dose, 0, 8, 24, 48 h
Method: One million promastigotes untreated or treated with 1 μM of different indenoisoquinolines were harvested by centrifugation after 0, 8, 24 and 48 h exposure. Promastigotes were washed twice with PBS and fixed by 1 h incubation with 70% methanol at 4 °C. After incubation, cells were centrifuged, washed again with PBS and resuspended in 0.5 mL of citrate buffer (45 mM MgCl2, 20 mM MOPS, 30 mM sodium citrate, 0.1% Triton X-100, pH = 7). Finally, samples with RNAase (50 μg/mL) and propidium iodide ([…]) were incubated at 37 °C during 30 min and analyzed at 589 nm by flow cytometry (Cyan ADP Dako).

[6] = splenic-infecting iRFP L. infantum amastigotes, 37 °C

Structure (SMILES) | EC50 [1, 6] [µM] | hTopIB inhibition (human Top IB (hTopIB); Table 1) | EC50 [2] [µM] | CC50 [3] [µM] | LTopIB inhibition ([4]; Table 1) | SI (Selectivity Index) [1] | hTopIB inhibition (human Top IB (hTopIB); Table 2) | LTopIB inhibition ([4]; Table 2) | effect on cell cycle of promastigotes [5] | hTopIB inhibition (human Top IB (hTopIB); Table 3) | LTopIB inhibition ([4]; Table 3) | EC50 [1] [µM]
NCCCCCn1c2c(c3ccccc3c1=O)C(=O)c1ccccc1-2 [Compound 10] | 2.29 ± 1.05 | +++ (inhibition at 1 μM) | 2.4 ± 1.03 | 1.35 ± 0.19 | +++ (inhibition at 1 μM) |  |  |  |  |  |  | 
O=C1c2ccccc2-c2c1c1ccc([N+](=O)[O-])cc1c(=O)n2CCCn1ccnc1 [Compound 11] | 0.06 ± 0.02 |  | 0.45 ± 0.5 | 0.71 ± 0.01 |  | 11 | +++ (inhibition at 1 μM) | +++ (inhibition at 1 μM) |  |  |  | 
COc1ccc2c(c1)C(=O)c1c-2n(CCCN)c(=O)c2cc([N+](=O)[O-])ccc12 [Compound 3] | > 10 | +++ (inhibition at 1 μM) | 0.2 ± 0.01 | 0.41 ± 0.19 | ++ (inhibition at 10 μM) |  |  |  | arrested the cell cycle of promastigotes in S phase |  |  | 
COc1cc2c3c(n(CCCn4ccnc4)c(=O)c2cc1OC)-c1cc2c(cc1C3=O)OCO2 [Compound 14] | 0.01 |  | 1.85 ± 0.18 | 0.03 |  | 3.0 | +++ (inhibition at 1 μM) | 0 |  |  |  | 
COc1cnc2c(c1)C(=O)c1c-2n(CCCN2CCOCC2)c(=O)c2ccc(OC)cc12 [Compound 17] | 0.27 ± 0.08 |  | 2.92 ± 0.44 | 7.84 ± 0.77 |  | 29.0 |  |  | arrested the cell cycle of promastigotes in S phase | +++ (inhibition at 1 μM) | +++ (inhibition at 1 μM) | 
NCCn1c2c(c3ccccc3c1=O)C(=O)c1ccccc1-2 [Compound 1] | 0.04 ± 0.09 | ++ (inhibition at 10 μM) | 0.94 ± 0.03 | 1.1 ± 0.06 | +++ (inhibition at 1 μM) | 24.4 |  |  |  |  |  | 
O=C1c2ccccc2-c2c1c1ccc([N+](=O)[O-])cc1c(=O)n2CCCN1CCOCC1 [Compound 15] | 0.6 ± 0.42 |  | > 10 | 18 ± 5.3 |  | 30 |  |  |  | +++ (inhibition at 1 μM) | 0 | 
NCCCn1c2c(c3ccc([N+](=O)[O-])cc3c1=O)C(=O)c1cc3c(cc1-2)OCO3 [Compound 8] | 0.02 ± 0.05 | +++ (inhibition at 1 μM) | 0.06 ± 0.01 | 0.05 ± 0.01 | +++ (inhibition at 1 μM) | 2.8 |  |  |  |  |  | 
O=C1c2cccnc2-c2c1c1ccccc1c(=O)n2CCCn1ccnc1 [Compound 13] | 0.59 ± 0.6 |  | 2.89 ± 0.14 | 2.4 ± 0.35 |  | 4.1 | ++ (inhibition at 10 μM) | + (inhibition at 100 μM) |  |  |  | 
NCCCCn1c2c(c3ccccc3c1=O)C(=O)c1ccccc1-2 [Compound 9] |  | +++ (inhibition at 1 μM) | 0.43 ± 0.08 | 2.11 ± 0.22 | +++ (inhibition at 1 μM) |  |  |  |  |  |  | 0.73 ± 0.01
COC(=O)c1ccc2c(c1)C(=O)c1c-2n(CCCN)c(=O)c2cc([N+](=O)[O-])ccc12 [Compound 4] | 0.14 ± 0.08 | +++ (inhibition at 1 μM) | 1.1 ± 0.07 | 0.59 ± 0.02 | ++ (inhibition at 10 μM) | 4.2 |  |  |  |  |  | 
C[C@@H]1[C@H](O)[C@@H](C)/C=C/C=C/C=C/C=C/C=C/C=C/C=C/[C@H](O[C@@H]2O[C@H](C)[C@@H](O)[C@H](N)[C@@H]2O)C[C@@H]2O[C@](O)(C[C@@H](O)C[C@@H](O)[C@H](O)CC[C@@H](O)C[C@@H](O)CC(=O)O[C@H]1C)C[C@H](O)[C@H]2C(=O)O [AMB, amphotericin B, reference compound] | 0.3 |  | 0.8 ± 0.1 | > 20 |  | >62 |  |  |  |  |  | 
COc1ccc2c(c1)C(=O)c1c-2n(CCCN2CCOCC2)c(=O)c2cc([N+](=O)[O-])ccc12 [Compound 16] | 1.86 ± 0.29 |  | > 10 | 0.59 ± 0.08 |  |  |  |  |  | +++ (inhibition at 1 μM) | 0 | 
NCCCn1c2c(c3ccc([N+](=O)[O-])cc3c1=O)C(=O)c1cc(Br)ccc1-2 [Compound 6] | 0.13 ± 0.03 | +++ (inhibition at 1 μM) | 0.52 ± 0.03 | 0.81 ± 0.09 | +++ (inhibition at 1 μM) | 6.2 |  |  |  |  |  | 
CCOc1ccc2c(c1)C(=O)c1c-2n(CCCN)c(=O)c2cc([N+](=O)[O-])ccc12 [Compound 5] | 0.08 | +++ (inhibition at 1 μM) | 0.54 ± 0.05 | 0.35 ± 0.03 | ++ (inhibition at 10 μM) | 4.4 |  |  |  |  |  | 
